Experiment [1] deals with T1, CRP (Rattus norvegicus, UniProt P48199).
T1 construct: from tissue; host or cells: rat serum
T1 sequence (P48199 20-230): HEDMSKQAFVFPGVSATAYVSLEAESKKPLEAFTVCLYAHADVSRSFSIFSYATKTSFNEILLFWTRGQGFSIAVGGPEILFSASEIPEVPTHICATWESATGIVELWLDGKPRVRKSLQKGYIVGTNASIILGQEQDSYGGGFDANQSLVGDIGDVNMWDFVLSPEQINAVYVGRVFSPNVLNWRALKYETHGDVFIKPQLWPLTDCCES
Put plainly: Reduction by PC of K+/R+ phage protection in vitro. Format: biochemical. The text has this: PC reduced the protection of K+/R+ phage both in vivo and in vitro, thereby confirming the role of CRP as a K+/R+ protection agent (FIG. 1B and Table 2K, respectively). […] Direct interaction between CRP and K+/R+ phage was shown with the phage immobilized on Affi-Gel 15. Immobilized K+/R+ phage, but not K−/R− phage, bound a substantial amount of serum protein that was eluted from the column by ε-ACA (FIG. 2C). […] The identification of this protein as CRP was confirmed by the Western blot analysis (FIG. 2B, lanes 2 and 3). No binding of CRP to K−/R− phage or a mock column was detected. […] The presence of multiple CRP molecules on surface of K+/R+ phage could provide steric protection against C-mediated inactivation. The role of CRP in protecting K+/R+ phage against C is consistent with the lack of protection for K+/R+ phage in human serum which normally contains little CRP.

A short description of experiment [2]: Phage survival in rat serum in vitro (plaque forming assay). The note with it: protein eluted from Lysine-Sepharose by ε-ACA; data not shown. Format: in vitro ADME. As to the method:
Serum preparation. Rat serum was prepared by clotting blood on ice.

The values below come from patent publication US7439051B2, “Process for utilizing epitopes recognized by natural antibodies” (Mirus Bio Corporation, priority 1999, dated 2008).

As usually defined, the IC50 is the point on the concentration scale where inhibition reaches its midpoint. High values mean weaker potency, low ones greater potency.

Regarding `C[N+](C)(C)CCOP(=O)(O)O` [PC, phosphorylcholine], the IC50 in experiment [1] (K+19/16 clone) and in experiment [1] (R+19/14 clone) was roughly 50 µM in each case.

B1: Plasminogen: plasminogen bound by Lysine-Sepharose, eluted by ε-aminocaproic acid (protein, UniProt P00747 20-810, looked up)
Plasminogen: EPLDDYVNTQGASLFSVTKKQLGAGSIEECAAKCEEDEEFTCRAFQYHSKEQQCVIMAENRKSSIIIRMRDVVLFEKKVYLSECKTGNGKNYRGTMSKTKNGITCQKWSSTSPHRPRFSPATHPSEGLEENYCRNPDNDPQGPWCYTTDPEKRYDYCDILECEEECMHCSGENYDGKISKTMSGLECQAWDSQSPHAHGYIPSKFPNKNLKKNYCRNPDRELRPWCFTTDPNKRWELCDIPRCTTPPPSSGPTYQCLKGTGENYRGNVAVTVSGHTCQHWSAQTPHTHNRTPENFPCKNLDENYCRNPDGKRAPWCHTTNSQVRWEYCKIPSCDSSPVSTEQLAPTAPPELTPVVQDCYHGDGQSYRGTSSTTTTGKKCQSWSSMTPHRHQKTPENYPNAGLTMNYCRNPDADKGPWCFTTDPSVRWEYCNLKKCSGTEASVVAPPPVVLLPDVETPSEEDCMFGNGKGYRGKRATTVTGTPCQDWAAQEPHRHSIFTPETNPRAGLEKNYCRNPDGDVGGPWCYTTNPRKLYDYCDVPQCAAPSFDCGKPQVEPKKCPGRVVGGCVAHPHSWPWQVSLRTRFGMHFCGGTLISPEWVLTAAHCLEKSPRPSSYKVILGAHQEVNLEPHVQEIEVSRLFLEPTRKDIALLKLSSPAVITDKVIPACLPSPNYVVADRTECFITGWGETQGTFGAGLLKEAQLPVIENKVCNRYEFLNGRVQSTELCAGHLAGGTDSCQGDSGGPLVCFEKDKYILQGVTSWGLGCARPNKPGVYVRVSRFVTWIEGVMRNN
On to B1, for which the “protective effect on phage” value in experiment [2] was “no protective effect”.
